Results on ten molecules are retold here after patent EP0181109B1, “N6-benzopyrano- and benzothiopyrano-adenosines” (WARNER-LAMBERT COMPANY, priority 1984, dated 1986).

One data set deals with T1, adenosine A1 receptor (Rattus norvegicus, UniProt P25099).
T1 construct: Whole brain minus cerebellum and brainstem from male Long Evans rats (150-200 g) was homogenized; from tissue; host or cells: rat whole brain minus cerebellum and brainstem (membrane homogenate)
T1 sequence (P25099 1-326): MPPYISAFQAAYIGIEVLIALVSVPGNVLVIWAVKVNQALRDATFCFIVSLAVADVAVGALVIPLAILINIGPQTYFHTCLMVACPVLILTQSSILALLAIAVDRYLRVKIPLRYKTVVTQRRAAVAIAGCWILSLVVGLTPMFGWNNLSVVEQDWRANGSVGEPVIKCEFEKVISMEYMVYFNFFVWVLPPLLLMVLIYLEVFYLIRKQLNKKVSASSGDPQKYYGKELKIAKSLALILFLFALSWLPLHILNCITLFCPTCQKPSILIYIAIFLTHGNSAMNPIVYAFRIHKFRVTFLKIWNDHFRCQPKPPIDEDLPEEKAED
As to the kind of experiment: Adenosine Receptor Binding - A1 Receptor Affinity (RBA 1), [3H]-CHA displacement. The conditions noted are these: rat whole brain membranes, 1.0 nM [3H]-CHA, one hour at 25°C. As to the method: Whole brain minus cerebellum and brainstem from male Long Evans rats (150-200 g) was homogenized in 30 volumes of ice-cold 0.05 M Tris-HCI buffer pH 7.7 using a Brinkman Polytron PT-10, (setting number 6 for 20 seconds) and centrifuged for ten minutes at 20,000 x g (Sorvall RC-2), 4°C. The supernatant was discarded, and the pellet was resuspended and centrifuged as before. The pellet was resuspended in 20 ml Tris-HCI buffer containing two International Units/ml of adenosine deaminase (Sigma Type III from calf intestinal mucosa), incubated at 37°C for 30 minutes, then subsequently at 0°C for ten minutes. The homogenate was again centrifuged, and the final pellet was resuspended in ice-cold 0.05 M Tris-HCI buffer pH 7.7 to a concentration of 20 mg/ml original wet tissue weight and used immediately.
Tissue homogenate (10 mg/ml) was incubated in 0.05 M Tris-HCI buffer pH 7.7 containing 1.0 nM [^3H]-N^6-cyclohexyladenosine (^3H]-CHA) with or without test agents in triplicate for one hour at 25°C. Incubation volume was 2 ml. Unbound [^3H]-CHA was separated by rapid filtration under reduced pressure through Whatman glass fiber (GF/B) filters. The filters were rinsed three times with 5 ml of ice cold 0.05 M Tris-HCI buffer pH 7.7. The radio-labele ligand retained on the filter was measured by liquid scintillation spectrophotometry after shaking the filters for one hour or longer on a mechanical shaker in 10 ml of Beckman Ready-Solv HP scintillation cocktail.
Nonspecific binding was defined as the binding which occurred in the presence of 1 mM theophylline. The concentration of test agent which inhibited 50% of the specific binding (IC50) was determined by nonlinear computer curve fit. The Scatchard plot was calculated by linear regression of the line obtained by plotting the amount of radioligand bound (pmoles/gram of tissue) versus
• bound radioligand • free radioligand Since the amount of radioligand bound was a small fraction of the total amount added, free radioligand was defined as the concentration (nM) of radioligand added to the incubation mixture. The Hill coefficient was calculated by linear regression of the line obtained by plotting the log of the bound radioligand vs the log of the • bound radioligand • Bmax - bound radioligand • The maximal number of binding sites (Bmax) was calculated from the Scatchard plot.

The subject of a further data set is spontaneous locomotion. The data set is described as follows: Mouse Activity and Screen Test Procedure (MAST): locomotor activity in actophotometer. It counts as in vivo, Swiss-Webster male mice. As to conditions: one hour prior to testing. The procedure:
(§1) Nine unfasted Swiss-Webster male mice weighing 20-30 g are equally divided into three groups for each drug dose to be tested. There is, data for each dose level was generated by three separate groups of three mice each.
(§2) A minimum of three dose levels (10, 30, and 100 mg/kg) are tested for each drug. Treatments are administered intraperitoneally one hour prior to testing. All dosages are calculated as parent compound and given in volumes of 10 ml/kg. Compounds are dissolved or suspended in 0.2% Methocel. Control animals are injected with Methocel.
The actophotometer consists of a cylindrical chamber whose center is occupied by another cylinder which contains the illumination for six photocells located on the perimeter of the chamber. Six light-beam interruptions equal one count. Locomotor activity is recorded by computer at ten minute intervals for 60 minutes.
Data: The data obtained from the screen test are expressed as percent of mice falling off the screen. Data derived from locomotor activity of drug treated mice are compared to the activity of vehicle treated animals and are expressed as percent inhibition of spontaneous locomotion. All percentages reported for inhibition of locomotion (LI) are based upon data accumulated for one hour. […] An overall dose rating is obtained by the following criteria:
LAD refers to the lowest dose at which an A rating is achieved. […] The compounds are identified in the Examples.

For data set [1], the system named is mice falling off the inverted screen. As to the kind of experiment: Mouse Activity and Screen Test Procedure (MAST): screen test (ST). It counts as in vivo, Swiss-Webster male mice. The conditions noted are these: one hour postinjection, percent of mice falling off the screen.
Excerpt: The compounds of the invention are new chemical substances which are useful as pharmaceutical agents for the treatment of psychoses. The antipsychotic activity of representative compounds of the invention was established by the Mouse Activity and Screen Test Procedure (MAST) described below.
as §1, §2
Testing: A two part testing procedure is started one hour postinjection. First, the screen test (ST) is performed (see Pharmac. Biochem. Behav. 6,351-353,1977). Briefly this test consists of placing mice on individual wire screens which are then rotated 180 degrees at the start of a 60 second observation period. The number of mice falling off the inverted screen is recorded.
Data: The data obtained from the screen test are expressed as percent of mice falling off the screen. Data derived from locomotor activity of drug treated mice are compared to the activity of vehicle treated animals and are expressed as percent inhibition of spontaneous locomotion. All percentages reported for inhibition of locomotion (LI) are based upon data accumulated for one hour. Both phases of testing are graded: A=60-100%; C=31-59%; and N=0-30%. An overall dose rating is obtained by the following criteria:
LAD refers to the lowest dose at which an A rating is achieved. […] Utilizing this procedure, an overall dose rating of A was obtained for the noted compound at the indicated dose. The compounds are identified in the Examples.

Structures are written as SMILES.

Usually IC50 stands for the concentration at which inhibition is half-maximal. A lower IC50 goes with greater potency in that assay. On adenosine A1 receptor, `OC[C@H]1O[C@@H](n2cnc3c(NC4CSc5ccccc5C4)ncnc32)[C@H](O)[C@@H]1O` (stereo partly shown) [Example 2] gave an IC50 of 6.33 nM. Further, the “Inhibition of Mouse Locomotion Activity” value with spontaneous locomotion (1 mg/kg intraperitoneally) is 34%; with spontaneous locomotion (3 mg/kg intraperitoneally) it was 60%; with spontaneous locomotion (10 mg/kg intraperitoneally) it was 96%; with spontaneous locomotion (30 mg/kg intraperitoneally), 98%; in the data set on spontaneous locomotion (100 mg/kg intraperitoneally), 99%. The “Screen Test Failure” value in data set [1] (1 mg/kg intraperitoneally) is given as 11%; in data set [1] (3 mg/kg intraperitoneally) it was 0%; in data set [1] (10 mg/kg intraperitoneally), 11%; in data set [1] (30 mg/kg intraperitoneally), 56%; in data set [1] (100 mg/kg intraperitoneally), 100%.
Take `OC[C@H]1O[C@@H](n2cnc3c(NC4CCSc5ccccc54)ncnc32)[C@H](O)[C@@H]1O` (stereo partly shown) [Example 15]: the IC50 at adenosine A1 receptor amounted to 56.2 nM. In addition, the “Inhibition of Mouse Locomotion Activity” value came out at 88% in the data set with spontaneous locomotion (3 mg/kg intraperitoneally), 95% in the data set with spontaneous locomotion (10 mg/kg intraperitoneally) and 97% in the data set with spontaneous locomotion (30 mg/kg intraperitoneally). Further, the results for the “Screen Test Failure” value in data set [1] (3 mg/kg intraperitoneally), in data set [1] (10 mg/kg intraperitoneally) and in data set [1] (30 mg/kg intraperitoneally) were 11%, 22% and 55%, respectively.
Take `CC1Oc2ccccc2CC1Nc1ncnc2c1ncn2C1OC(CO)C(O)C1O` (stereo not drawn) [Example 7, N^6-[cis-2-Methyl-3-chromanylamino]adenosine]: at adenosine A1 receptor, the 50% inhibitory concentration (IC50) was determined as 7.8 nM. Also, the “Inhibition of Mouse Locomotion Activity” value with spontaneous locomotion (0.3 mg/kg intraperitoneally) was 6%; with spontaneous locomotion (1 mg/kg intraperitoneally) it was 57%; in the data set with spontaneous locomotion (3 mg/kg intraperitoneally) it was 95%; with spontaneous locomotion (9.0 mg/kg intraperitoneally), 96%; in the data set on spontaneous locomotion (30 mg/kg intraperitoneally), 93%. Besides, the “Screen Test Failure” value in data set [1] (0.3 mg/kg intraperitoneally) came out at 0%; in data set [1] (1 mg/kg intraperitoneally), 0%; in data set [1] (3 mg/kg intraperitoneally), 22%; in data set [1] (9.0 mg/kg intraperitoneally), 55%; in data set [1] (30 mg/kg intraperitoneally), 100%.
Turning to `O=S1(=O)CCC(Nc2ncnc3c2ncn3[C@@H]2O[C@H](CO)[C@@H](O)[C@H]2O)c2ccccc21` (stereo partly shown) [Example 16, N^6-[4-Benzothiopyran-1,1-dioxideamino]adenosine], the half-inhibitory concentration (IC50) on adenosine A1 receptor came to 622 nM. The “Inhibition of Mouse Locomotion Activity” value in the data set with spontaneous locomotion (3 mg/kg intraperitoneally) is listed as 15%; in the data set on spontaneous locomotion (10 mg/kg intraperitoneally) it was 69%; in the data set on spontaneous locomotion (30 mg/kg intraperitoneally), 98%. Besides, the “Screen Test Failure” value in data set [1] (3 mg/kg intraperitoneally) was found to be 0%; in data set [1] (10 mg/kg intraperitoneally) it was 22%; in data set [1] (30 mg/kg intraperitoneally), 55%.
As for `COc1cc(OC)c2c(c1)OC(C)(C)CC2Nc1ncnc2c1ncn2[C@@H]1O[C@H](CO)[C@@H](O)[C@H]1O` (stereo partly shown) [Example 14], the half-maximal inhibitory concentration (IC50) on adenosine A1 receptor came out at 4930 nM. For the same molecule, the “Inhibition of Mouse Locomotion Activity” value in the data set with spontaneous locomotion (10 mg/kg intraperitoneally) is recorded as 8%; with spontaneous locomotion (30 mg/kg intraperitoneally), 13%; in the data set on spontaneous locomotion (100 mg/kg intraperitoneally) it was 2%. The “Screen Test Failure” value in data set [1] (10 mg/kg intraperitoneally), in data set [1] (30 mg/kg intraperitoneally) and in data set [1] (100 mg/kg intraperitoneally) was 0% each time.
`OC[C@H]1O[C@@H](n2cnc3c(NC4COc5c(Cl)cccc5C4)ncnc32)[C@H](O)[C@@H]1O` (stereo partly shown) [Example 5] yielded an IC50 at adenosine A1 receptor of 17 nM. The “Inhibition of Mouse Locomotion Activity” value in the data set on spontaneous locomotion (1 mg/kg intraperitoneally) is recorded as -14%; in the data set with spontaneous locomotion (3 mg/kg intraperitoneally), 30%; with spontaneous locomotion (10 mg/kg intraperitoneally) it was 89%; in the data set with spontaneous locomotion (30 mg/kg intraperitoneally), 97%; with spontaneous locomotion (100 mg/kg intraperitoneally) it was 99%. Further, the “Screen Test Failure” value in data set [1] (1 mg/kg intraperitoneally) turned out to be 0%; in data set [1] (3 mg/kg intraperitoneally), 0%; in data set [1] (10 mg/kg intraperitoneally), 22%; in data set [1] (30 mg/kg intraperitoneally), 55%; in data set [1] (100 mg/kg intraperitoneally), 44%.
Molecule `Cc1ccc2c(c1C)OC(C)C(Nc1ncnc3c1ncn3[C@@H]1O[C@H](CO)[C@@H](O)[C@H]1O)C2` (stereo partly shown) [Example 11] registered an IC50 at adenosine A1 receptor of 32 nM. The “Inhibition of Mouse Locomotion Activity” value in the data set with spontaneous locomotion (1 mg/kg intraperitoneally) was 13%; with spontaneous locomotion (3 mg/kg intraperitoneally), 27%; in the data set with spontaneous locomotion (10 mg/kg intraperitoneally), 90%; in the data set on spontaneous locomotion (30 mg/kg intraperitoneally), 95%; in the data set with spontaneous locomotion (100 mg/kg intraperitoneally), 99%. Besides, the “Screen Test Failure” value in data set [1] (1 mg/kg intraperitoneally) was determined as 0%; in data set [1] (3 mg/kg intraperitoneally), 0%; in data set [1] (10 mg/kg intraperitoneally), 11%; in data set [1] (30 mg/kg intraperitoneally), 22%; in data set [1] (100 mg/kg intraperitoneally) it was 67%.
`CC(C)(C)c1ccc2c(c1)OCC(Nc1ncnc3c1ncn3[C@@H]1O[C@H](CO)[C@@H](O)[C@H]1O)C2` (stereo partly shown) [Example 13, N^6-[7-t-Butyl-3-chromanylamino)adenosine] displayed a half-maximal inhibitory concentration (IC50) at adenosine A1 receptor of 160 nM. For the same molecule, the “Inhibition of Mouse Locomotion Activity” value with spontaneous locomotion (10 mg/kg intraperitoneally) worked out at 50%; with spontaneous locomotion (30 mg/kg intraperitoneally), 82%; in the data set on spontaneous locomotion (100 mg/kg intraperitoneally), 88%. The “Screen Test Failure” value is listed as 0% in data set [1] (10 mg/kg intraperitoneally), 0% in data set [1] (30 mg/kg intraperitoneally) and 22% in data set [1] (100 mg/kg intraperitoneally).
On adenosine A1 receptor, `OC[C@H]1O[C@@H](n2cnc3c(NC4CCOc5ccccc54)ncnc32)[C@H](O)[C@@H]1O` (stereo partly shown) [Example 1] came in with an IC50 of 88 nM. Moreover, the “Inhibition of Mouse Locomotion Activity” value in the data set with spontaneous locomotion (3 mg/kg intraperitoneally) amounted to 91%; in the data set on spontaneous locomotion (10 mg/kg intraperitoneally) it was 94%; in the data set with spontaneous locomotion (30 mg/kg intraperitoneally) it was 97%. Also, the “Screen Test Failure” value was found to be 33% in data set [1] (3 mg/kg intraperitoneally), 33% in data set [1] (10 mg/kg intraperitoneally) and 22% in data set [1] (30 mg/kg intraperitoneally).
`COc1ccc2c(c1)OCC(Nc1ncnc3c1ncn3[C@@H]1O[C@H](CO)[C@@H](O)[C@H]1O)C2` (stereo partly shown) [Example 3] yielded an IC50 on adenosine A1 receptor of 14.2 nM. The “Inhibition of Mouse Locomotion Activity” value came to 25% in the data set on spontaneous locomotion (1 mg/kg intraperitoneally), 58% in the data set on spontaneous locomotion (3 mg/kg intraperitoneally), 89% in the data set on spontaneous locomotion (10 mg/kg intraperitoneally) and 97% in the data set with spontaneous locomotion (30 mg/kg intraperitoneally). For the same molecule, the “Screen Test Failure” value in data set [1] (1 mg/kg intraperitoneally) is reported as 0%; in data set [1] (3 mg/kg intraperitoneally), 0%; in data set [1] (10 mg/kg intraperitoneally), 22%; in data set [1] (30 mg/kg intraperitoneally), 22%.
